The test system of assay [1] is T1, PDE4 partially purified from human U-937 myeloid leukemia cells.
T1 construct: PDE4 partially purified from human U-937 myeloid leukemia cells was used
Description: PDE4 Assay (enzyme from U-937 cells, [3H]cAMP). Type of assay: biochemical. The following applies: PDE4 from U-937 cells, Tris buffer pH 7.5, 20 minutes at 25° C. The protocol: Test article and/or vehicle was incubated with 0.2 mg enzyme and 1 mM cAMP containing 0.01 mM [3H]cAMP in Tris buffer pH 7.5 for 20 minutes at 25° C. The reaction was terminated by boiling for 2 minutes and the resulting AMP is converted to adenosine by addition of 10 mg/ml snake venom nucleotidase and further incubation at 37° C. for 10 minutes. Unhydrolyzed cAMP is bound to AG1-X2 resin, and remaining [3H]Adenosine in the aqueous phase is quantitated by scintillation counting.

The next assay relates to IL-2. Briefly: Cytokine assay, IL-2 release from PBMC. It counts as cell-based. To be noted: human PBMC, 20 ug/mL PHA; for IC50: supernatant at 24 hours; for inhibition at 10 µM: 24 hours. The procedure:
(§1) The ability of the compounds described herein to inhibit pro-inflammatory cytokines or phsophodiesterases were tested.
(§2) Frozen human peripheral blood mononucleocytes (PBMC) were thawed and centrifuged. Cryopreservation media was aspirated off of the cell pellet, and the cells were resuspended in fresh culture media (CM) comprising RPMI 1640 and 10% FBS in 96 well plates. Test article was dissolved in DMSO to form a 10 mM sample (DMSO, 100%). The 10 mM samples were diluted to 100 μM in CM (DMSO, 1%), then further diluted to 10, 1, 0.1, 0.01 μM in 200 μL of CM (n=3). […] IL-23 was assayed using a commercial ELISA kit (R&D Systems).

A further assay relates to TNF-α. Description: Cytokine assay, TNF-α release from PBMC. To be noted: 1 μg/mL LPS; for IC50: supernatant at 24 hours. It counts as cell-based. The protocol: as §1, §2
Another assay has as its system IL-5. Briefly: Cytokine assay, IL-5 release from PBMC. It counts as cell-based. The following applies: human PBMC, 20 ug/mL PHA; for IC50: supernatant at 48 hours; for inhibition at 10 µM: 48 hours. The procedure: as §1, §2
For another assay, the system named is IL-10. Description: Cytokine assay, IL-10 release from PBMC. Type of assay: cell-based. To be noted: human PBMC, 20 ug/mL PHA; for IC50: supernatant at 48 hours; for inhibition at 10 µM: 48 hours. The protocol: as §1, §2
The next assay relates to IFN-γ. Description: Cytokine assay, IFN-γ release from PBMC. To be noted: human PBMC, 20 ug/mL PHA; for IC50: supernatant at 24 hours; for inhibition at 10 µM: 24 hours. It counts as cell-based. The protocol: as §1, §2

Counter-ions that a name gives are not always drawn. Some results are limits rather than exact numbers.

For the molecule `N#Cc1ccc(Oc2ccc3c(c2)B(O)OC3)cc1` [C18, 6-(4-Cyanophenoxy)-1,3-dihydro-1-hydroxy-2,1-benzoxaborole], the IC50 (commonly the concentration at which inhibition is half-maximal) was more than 10000 nM in assay [1]; more than 10000 nM in the assay on IL-2; more than 10000 nM in the assay with TNF-α (Homo sapiens, PBMC, 24 h); more than 10000 nM with IL-5; more than 10000 nM in the assay on IL-10; more than 10000 nM in the assay on IFN-γ.
With `COc1ccc(Oc2ccc3c(c2)B(O)OC3)cc1` [C31, 6-(4-Methoxyphenoxy)-1,3-dihydro-1-hydroxy-2,1-benzoxaborole], the IC50 in assay [1] was 4000 to 10000 nM; with IL-2, more than 10000 nM; with TNF-α (Homo sapiens, PBMC, 24 h) it was more than 10000 nM; in the assay with IL-5, more than 10000 nM; in the assay with IL-10, more than 10000 nM. Moreover, the inhibition (commonly the relative decrease from the control value, in per cent) at 10 µM in the assay on IFN-γ lay in the range of 30 to 60%.
Take `O=C(O)c1ccc(Oc2ccc3c(c2)COB3O)cc1` [C38, 4-(1-hydroxy-1,3-dihydro-benzo[c][1,2]oxaborol-5-yloxy)-benzoic acid]: the IC50 in assay [1] was 4000 to 10000 nM; in the assay on IL-2 it was more than 10000 nM; in the assay on TNF-α (Homo sapiens, PBMC, 24 h), more than 10000 nM; with IL-5 it was more than 10000 nM; in the assay with IL-10, more than 10000 nM; in the assay with IFN-γ, more than 10000 nM.
With `N#Cc1ccc(COc2ccc3c(c2)COB3O)cc1` [D1, 5-(4-Cyanobenzyloxy)-1,3-dihydro-1-hydroxy-2,1-benzoxaborole], the IC50 is 1000 to 4000 nM in assay [1]; 1000 to 4000 nM in the assay on IL-2; 4000 to 10000 nM in the assay on TNF-α (Homo sapiens, PBMC, 24 h); 1000 to 4000 nM in the assay on IL-5; more than 10000 nM in the assay on IL-10; 1000 to 4000 nM in the assay on IFN-γ.
As to `N#Cc1ccc(Oc2ccc3c(c2)COB3O)cc1Cl` [D2, 5-(3-Chloro-4-cyanophenoxy)-1-hydroxy-2,1-benzoxaborole], the IC50 in assay [1] was less than 1000 nM; in the assay with IL-2, less than 1000 nM; in the assay on TNF-α (Homo sapiens, PBMC, 24 h) it was less than 1000 nM; in the assay with IL-5, less than 1000 nM; in the assay on IL-10 it was more than 10000 nM; with IFN-γ it was less than 1000 nM.
Regarding `Cc1cc(Oc2ccc3c(c2)COB3O)ccc1C#N` [D3, 5-(4-Cyano-3-methylphenoxy)-1,3-dihydro-1-hydroxy-2,1-benzoxaborole], the 50% inhibitory concentration (IC50) in assay [1] is less than 1000 nM; in the assay with IL-2, less than 1000 nM; in the assay on TNF-α (Homo sapiens, PBMC, 24 h) it was less than 1000 nM; with IL-5, less than 1000 nM; with IL-10, more than 10000 nM; in the assay on IFN-γ it was less than 1000 nM.
On to `O=C1NC(=O)c2cc(Oc3ccc4c(c3)COB4O)ccc21` [D9, 5-(1,3-Dihydro-1-hydroxy-2,1-benzoxaborol-5-yloxy)isoindoline-1,3-dione], for which the IC50 was less than 1000 nM in assay [1]; less than 1000 nM in the assay with IL-2; less than 1000 nM in the assay with TNF-α (Homo sapiens, PBMC, 24 h); less than 1000 nM in the assay with IL-5; less than 1000 nM in the assay with IL-10; less than 1000 nM with IFN-γ.
Turning to `CC(=O)Oc1cc(Oc2ccc3c(c2)COB3O)ccc1C#N` [D11, 5-(4-Cyano-3-acetoxyphenoxy)-1,3-dihydro-1-hydroxy-2,1-benzoxaborole], the half-maximal inhibitory concentration (IC50) in assay [1] was less than 1000 nM; in the assay with IL-2, 1000 to 4000 nM; in the assay with TNF-α (Homo sapiens, PBMC, 24 h), less than 1000 nM; in the assay on IL-5, 4000 to 10000 nM; in the assay with IL-10, 1000 to 4000 nM; with IFN-γ, 1000 to 4000 nM.
Regarding `N#Cc1c(Cl)cccc1Oc1ccc2c(c1)COB2O` [D13, 5-(3-Chloro-2-cyanophenoxy)-1,3-dihydro-1-hydroxy-2,1-benzoxaborole], the IC50 in assay [1] was 1000 to 4000 nM; in the assay with IL-2, 1000 to 4000 nM; in the assay with TNF-α (Homo sapiens, PBMC, 24 h), 4000 to 10000 nM; with IL-5, 1000 to 4000 nM; in the assay on IL-10, 1000 to 4000 nM; in the assay on IFN-γ, 1000 to 4000 nM.
On to `N#Cc1ccc(Oc2ccc3c(c2)COB3O)c(CNC=O)c1` [D25, 5-[4-Cyano-2-(formylaminomethyl)phenoxy]-1,3-dihydro-1-hydroxy-2,1-benzoxaborole], for which the IC50 was less than 1000 nM in assay [1]; less than 1000 nM with IL-2; 4000 to 10000 nM in the assay on TNF-α (Homo sapiens, PBMC, 24 h); less than 1000 nM in the assay on IL-5; 1000 to 4000 nM in the assay on IL-10; 1000 to 4000 nM in the assay on IFN-γ.
For `N#Cc1ccc(Oc2ccc3c(c2)COB3O)c(CN)c1` [D26, 5-(2-Aminomethyl-4-cyanophenoxy)-1,3-dihydro-1-hydroxy-2,1-benzoxaborole hydrochloride], the IC50 is 1000 to 4000 nM in assay [1]; 1000 to 4000 nM in the assay on IL-2; more than 10000 nM in the assay on TNF-α (human PBMC, hydrochloride); 4000 to 10000 nM with IL-5; more than 10000 nM in the assay with IL-10; 4000 to 10000 nM in the assay with IFN-γ.
`CCN(CC)C(=O)COc1cc(C#N)ccc1Oc1ccc2c(c1)COB2O` [D28, 2-(5-cyano-2-(1-hydroxy-1,3-dihydrobenzo[c][1,2]oxaborol-5-yloxy)phenoxy)-N,N-diethylacetamide]: the 50% inhibitory concentration (IC50) in assay [1] is less than 1000 nM; in the assay with IL-2 it was less than 1000 nM; in the assay on TNF-α (Homo sapiens, PBMC, 24 h) it was less than 1000 nM; in the assay with IL-5, less than 1000 nM; in the assay with IL-10, 1000 to 4000 nM; in the assay with IFN-γ it was less than 1000 nM.
Turning to `CC(C)(C)OC(=O)COc1cc(C#N)ccc1Oc1ccc2c(c1)COB2O` [D30, 5-[4-Cyano-2-(tert-butoxycarbonylmethoxy)phenoxy], 3-dihydro-1-hydroxy-2,1-benzoxaborole], the half-maximal inhibitory concentration (IC50) is less than 1000 nM in assay [1]; less than 1000 nM with IL-2; less than 1000 nM with TNF-α (Homo sapiens, PBMC, 24 h); less than 1000 nM in the assay with IL-5; less than 1000 nM in the assay on IL-10; less than 1000 nM with IFN-γ.
As to `CCOC(=O)COc1cc(Oc2ccc3c(c2)COB3O)ccc1C#N` [D38, [2-Cyano-5-(1-hydroxy-1,3-dihydro-benzo[c][1,2]oxaborol-5-yloxy)-phenoxy]-acetic acid ethyl ester], the IC50 in assay [1] was less than 1000 nM; in the assay with IL-2 it was less than 1000 nM; in the assay with TNF-α (Homo sapiens, PBMC, 24 h) it was less than 1000 nM; in the assay on IL-5, less than 1000 nM; in the assay with IL-10 it was 1000 to 4000 nM; in the assay with IFN-γ, less than 1000 nM.
On to `CC(C)(C)OC(=O)COc1cc(Oc2ccc3c(c2)COB3O)ccc1C#N` [D40, [2-Cyano-5-(1-hydroxy-1,3-dihydro-benzo[c][1,2]oxaborol-5-yloxy)-phenoxy]-acetic acid tert-butyl ester], for which the half-inhibitory concentration (IC50) is less than 1000 nM in assay [1]; less than 1000 nM in the assay on IL-2; less than 1000 nM in the assay with TNF-α (Homo sapiens, PBMC, 24 h); less than 1000 nM in the assay with IL-5; less than 1000 nM with IL-10; less than 1000 nM in the assay on IFN-γ.
`NCc1ccc(Oc2ccc3c(c2)COB3O)cc1` [D59, (4-(1-Hydroxy-1,3-dihydrobenzo[c][1,2]oxaborol-5-yloxy)phenyl) methanaminium chloride]: the IC50 in assay [1] is more than 10000 nM. Moreover, the inhibition at 10 µM was 60 to 90% in the assay on IL-2; 30 to 60% in the assay with TNF-α (human PBMC, 24 hours, 10 μM); 30 to 60% in the assay with IL-5; less than 30% in the assay with IL-10.
As to `NCc1ccc(Oc2ccc3c(c2)COB3O)nc1NCCO` [D117], the IC50 with IL-2 is 1000 to 4000 nM; in the assay on TNF-α (Homo sapiens, PBMC, 24 h) it was 1000 to 4000 nM; in the assay on IL-5 it was 1000 to 4000 nM; in the assay with IL-10, more than 10000 nM; in the assay with IFN-γ, more than 10000 nM.
As for `N#Cc1ccc(Oc2ccc3c(c2)COB3O)nc1NCc1ccccc1` [D121, 2-Benzylamino-6-(1-hydroxy-1,3-dihydro-benzo[c][1,2]oxaborol-5-yloxy)-nicotinonitrile], the IC50 in the assay on IL-2 is less than 1000 nM; in the assay on TNF-α (Homo sapiens, PBMC, 24 h), less than 1000 nM; with IL-5 it was less than 1000 nM; in the assay on IL-10, 1000 to 4000 nM; in the assay with IFN-γ it was less than 1000 nM.
Take `N#Cc1ccc(Oc2ccc3c(c2)COB3O)nc1NCCO` [D132, 6-(1-hydroxy-1,3-dihydro-benzo[c][1,2]oxaborol-5-yloxy)-2-(2-hydroxy-ethylamino)-nicotinonitrile]: the IC50 is less than 1000 nM with IL-2; less than 1000 nM in the assay on TNF-α (Homo sapiens, PBMC, 24 h); less than 1000 nM in the assay on IL-5; less than 1000 nM in the assay with IL-10; less than 1000 nM with IFN-γ.
With `N#Cc1cc(CNC=O)ccc1Oc1ccc2c(c1)COB2O` [D137, 5-[2-Cyano-4-(formylaminomethyl)phenoxy]-1,3-dihydro-1-hydroxy-2,1-benzoxaborole], the inhibition at 10 µM is 60 to 90% in the assay on IL-2, 30 to 60% in the assay on IL-5, 30 to 60% in the assay with IL-10 and 60 to 90% in the assay on IFN-γ. Further, the IC50 with TNF-α (Homo sapiens, PBMC, 24 h) lay within 1000 to 4000 nM.
For `N#Cc1ccc(Oc2ccc3c(c2)COB3O)c(CN)c1` [D138, 5-(2-Aminomethyl-4-cyanophenoxy)-1,3-dihydro-1-hydroxy-2,1-benzoxaborole hydrochloride], the inhibition at 10 µM with IL-2 lay in the range of 60 to 90%; in the assay with IL-5, 60 to 90%; in the assay with IL-10, 30 to 60%; with IFN-γ, 30 to 60%. Moreover, the IC50 in the assay with TNF-α (human PBMC, hydrochloride) was in the range of 1000 to 4000 nM.

The values are drawn from patent US9012431B2, “Boron-containing small molecules as anti-inflammatory agents” (Anacor Pharmaceuticals, Inc., priority 2008, dated 2015).
